Assay [1] deals with Pyricularia oryzae. As to the kind of experiment: microbe, parasite or virus in culture. The assay is classed as cell-based. The following applies: Pyricularia oryzae, 72 h; for inhibition at 5 ppm: read-out: Percent Fungus Growth Inhibition, PO, 5 ppm, 72 hours; for inhibition at 10 ppm: read-out: Percent Fungus Growth Inhibition, PO, 10 ppm, 72 hours; for inhibition at 20 ppm: read-out: Percent Fungus Growth Inhibition, PO, 20 ppm, 72 hours; for inhibition at 40 ppm: read-out: Percent Fungus Growth Inhibition, PO, 40 ppm, 72 hours.

Assay [2] concerns Pyricularia oryzae. The assay can be described thus: whole plant or invertebrate. The assay is classed as in vivo. Particulars: Pyricularia oryzae, foliar, 24 h, read-out: Percent Disease Control, curative, rice blast, 150 ppm, 24 hours after inoculation.
Another assay has as its system Phytophthora infestans. The assay can be described thus: whole plant or invertebrate. The assay is classed as in vivo. Particulars: Phytophthora infestans, in Solanum lycopersicum, foliar, read-out: Percent Disease Control, foliar, tomato late blight, 150 ppm, protective.

As usually defined, the inhibition is how much of the control response was suppressed.

Consider `COc1ccc(Cl)c(Oc2nsnc(Cl)c2=O)c1` [Compound 51, 3-chloro-5-[(2-chloro-5-methoxy)phenoxy]-4H--1,2,6-thiadiazin-4-one], for which, in the assay with Pyricularia oryzae [1], the inhibition at 5 ppm stood at 46%, the inhibition at 10 ppm is 77%, the inhibition at 20 ppm worked out at 92% and the inhibition at 40 ppm came out at 100%. Also, in the assay with Pyricularia oryzae [2], the pest or weed control at 150 ppm is 0%. In addition, the pest or weed control at 150 ppm in the assay with Phytophthora infestans is 90%.

As to `COc1cc(Cl)cc(Oc2nsnc(Cl)c2=O)c1` [Compound 52, 3-chloro-5-[(3-chloro-5-methoxy)phenoxy]-4H--1,2,6-thiadiazin-4-one], in the assay with Pyricularia oryzae [1], the inhibition at 5 ppm worked out at 58%, the inhibition at 10 ppm amounted to 77%, the inhibition at 20 ppm was determined as 100% and the inhibition at 40 ppm stood at 100%. The pest or weed control at 150 ppm in the assay with Pyricularia oryzae [2] came out at 95%. Moreover, the pest or weed control at 150 ppm with Phytophthora infestans turned out to be 50%.

Consider `O=c1c(Cl)nsnc1Oc1ccc([N+](=O)[O-])cc1Cl` [Compound 53, 3-chloro-5-(2-chloro-4-nitrophenoxy)-4H--1,2,6-thiadiazin-4-one], for which, in the assay with Pyricularia oryzae [1], the inhibition at 5 ppm came to 69%, the inhibition at 10 ppm was 75%, the inhibition at 20 ppm came to 78% and the inhibition at 40 ppm was 67%. In addition, the pest or weed control at 150 ppm in the assay with Pyricularia oryzae [2] was determined as 0%. The pest or weed control at 150 ppm in the assay on Phytophthora infestans worked out at 98%.

In the case of `Cc1cc(Oc2nsnc(Cl)c2=O)ccc1Cl` [Compound 54, 3-chloro-5-(4-chloro-3-methylphenoxy)-4H--1,2,6-thiadiazin-4-one], in the assay on Pyricularia oryzae [1], the inhibition at 5 ppm is 50%, the inhibition at 10 ppm came to 53%, the inhibition at 20 ppm came out at 56% and the inhibition at 40 ppm worked out at 65%. Moreover, the pest or weed control at 150 ppm with Pyricularia oryzae [2] was found to be 0%. Also, the pest or weed control at 150 ppm in the assay on Phytophthora infestans turned out to be 0%.

For the compound `Cc1cc(Cl)ccc1Oc1nsnc(Cl)c1=O` [Compound 55, 3-chloro-5-(4-chloro-2-methylphenoxy)-4H--1,2,6-thiadiazin-4-one], in the assay with Pyricularia oryzae [1], the inhibition at 5 ppm was 41%, the inhibition at 10 ppm amounted to 59%, the inhibition at 20 ppm stood at 51% and the inhibition at 40 ppm stood at 53%. For the same compound, in the assay with Pyricularia oryzae [2], the pest or weed control at 150 ppm turned out to be 50%. The pest or weed control at 150 ppm in the assay on Phytophthora infestans is 90%.

For `Cc1ccc(Cl)c(Oc2nsnc(Cl)c2=O)c1` [Compound 56, 3-chloro-5-[(2-chloro-5-methyl)phenoxy]-4H--1,2,6-thiadiazin-4-one], in the assay on Pyricularia oryzae [1], the inhibition at 5 ppm came out at 38%, the inhibition at 10 ppm was 67%, the inhibition at 20 ppm came to 100% and the inhibition at 40 ppm amounted to 100%. Besides, in the assay on Pyricularia oryzae [2], the pest or weed control at 150 ppm is 0%. For the same compound, in the assay with Phytophthora infestans, the pest or weed control at 150 ppm is 95%.

As to `Cc1ccc(Oc2nsnc(Cl)c2=O)c(Br)c1` [Compound 57, 3-[(2-bromo-4-methyl)-phenoxy]-5-chloro-4H--1,2,6-thiadiazin-4-one], in the assay on Pyricularia oryzae [1], the inhibition at 5 ppm worked out at 46%, the inhibition at 10 ppm came out at 61%, the inhibition at 20 ppm was determined as 71% and the inhibition at 40 ppm came out at 61%. Besides, in the assay with Pyricularia oryzae [2], the pest or weed control at 150 ppm turned out to be 0%. The pest or weed control at 150 ppm in the assay with Phytophthora infestans came to 0%.

Turning to `Cc1cc(Cl)c(Oc2nsnc(Cl)c2=O)cc1C` [Compound 58, 3-chloro-5-[(2-chloro-4,5-dimethyl)phenoxy]-4H--1,2,6-thiadiazin-4-one], in the assay on Pyricularia oryzae [1], the inhibition at 5 ppm was determined as 43%, the inhibition at 10 ppm stood at 54%, the inhibition at 20 ppm was 29% and the inhibition at 40 ppm amounted to 50%. Besides, in the assay with Pyricularia oryzae [2], the pest or weed control at 150 ppm turned out to be 0%. In the assay on Phytophthora infestans, the pest or weed control at 150 ppm was 0%.

For the compound `Cc1cc(Oc2nsnc(Cl)c2=O)cc(C)c1Cl` [Compound 59, 3-chloro-5-[(4-chloro-3,5-dimethyl)phenoxy]-4H--1,2,6-thiadiazin-4-one], in the assay with Pyricularia oryzae [1], the inhibition at 5 ppm worked out at 50%, the inhibition at 10 ppm worked out at 61%, the inhibition at 20 ppm was found to be 50% and the inhibition at 40 ppm was determined as 50%. The pest or weed control at 150 ppm with Pyricularia oryzae [2] was determined as 0%. In the assay with Phytophthora infestans, the pest or weed control at 150 ppm was found to be 0%.

As for `Cc1cc(Oc2nsnc(Cl)c2=O)cc(C)c1Br` [Compound 60, 3-[(4-bromo-3,5-dimethyl)-phenoxy]-5-chloro-4H--1,2,6-thiadiazin-4-one], in the assay on Pyricularia oryzae [1], the inhibition at 5 ppm was determined as 32%, the inhibition at 10 ppm was 43%, the inhibition at 20 ppm turned out to be 43% and the inhibition at 40 ppm was found to be 64%. The pest or weed control at 150 ppm in the assay on Pyricularia oryzae [2] amounted to 0%. In addition, in the assay with Phytophthora infestans, the pest or weed control at 150 ppm worked out at 0%.

For `COc1cc(Oc2nsnc(Cl)c2=O)cc(OC)c1C(C)=O` [Compound 61, 3-[(4-acetyl-3,5-dimethoxy)-phenoxy]-5-chloro-4H--1,2,6-thiadiazin-4-one], in the assay on Pyricularia oryzae [1], the inhibition at 5 ppm stood at 28%, the inhibition at 10 ppm came to 42%, the inhibition at 20 ppm was found to be 50% and the inhibition at 40 ppm worked out at 44%. Further, the pest or weed control at 150 ppm with Pyricularia oryzae [2] amounted to 0%. The pest or weed control at 150 ppm in the assay on Phytophthora infestans worked out at 0%.

For the origin of these results see patent US4450269A, “Mono-5-substituted-3-chloro-4H-1,2,6-thiadiazin-4-one antifungal agents” (FMC Corporation, priority 1980, dated 1984).
